Measured values published in the NIST ThermoML archive (doi:10.1021/je301123j).

Experiment: xn = mol fraction of the nth substance listed
Settings: for surface tension liquid-gas: Ring tensiometer; for mass density / speed of sound / viscosity: 100 kPa, Liquid

CCN1CCCC1=O [1-ethyl-2-pyrrolidinone] + NCCO
Settings | mass density [kg/m3] | speed of sound [m/s] | surface tension liquid-gas [mN/m] | viscosity [mPa·s]
293.15 K, x1 = 0.1 | 1014.83 | 1694.5 | 44.9 | 16.56
293.15 K, x1 = 0.2002 | 1012.06 | 1652.1 | 42.4 | 11.56
293.15 K, x1 = 0.2999 | 1008.77 | 1621.1 | 41.1 | 8.317
293.15 K, x1 = 0.4002 | 1006.13 | 1596 | 39.8 | 6.255
293.15 K, x1 = 0.4999 | 1002.53 | 1575.8 | 39.1 | 4.742
293.15 K, x1 = 0.5996 | 999.47 | 1554.4 | 38.3 | 3.762
293.15 K, x1 = 0.7002 | 998.41 | 1540.5 | 37.7 | 3.101
293.15 K, x1 = 0.7999 | 997.76 | 1529.1 | 37.3 | 2.641
293.15 K, x1 = 0.8997 | 997.35 | 1519.5 | 37.1 | 2.325
293.15 K, x1 = 1 | 997.91 | 1513.2 | 36.5 | 2.132
303.15 K, x1 = 0.1 | 1006.71 | 1661.1 | 43.7 | 10.66
303.15 K, x1 = 0.2002 | 1003.8 | 1617 | 41.2 | 7.68
303.15 K, x1 = 0.2999 | 1000.38 | 1582.4 | 39.8 | 6.051
303.15 K, x1 = 0.4002 | 997.65 | 1560.4 | 38.5 | 4.76
303.15 K, x1 = 0.4999 | 993.9 | 1539.5 | 37.6 | 3.526
303.15 K, x1 = 0.5996 | 990.78 | 1517.3 | 36.7 | 2.912
303.15 K, x1 = 0.7002 | 989.74 | 1503.1 | 36.1 | 2.446
303.15 K, x1 = 0.7999 | 989.12 | 1491.9 | 36.2 | 2.147
303.15 K, x1 = 0.8997 | 988.75 | 1481.7 | 35.7 | 1.918
303.15 K, x1 = 1 | 989.34 | 1475 | 35.2 | 1.777
313.15 K, x1 = 0.1 | 998.53 | 1628 | 42.7 | 7.237
313.15 K, x1 = 0.2002 | 995.42 | 1582.8 | 40.2 | 5.477
313.15 K, x1 = 0.2999 | 991.88 | 1552.5 | 38.7 | 4.386
313.15 K, x1 = 0.4002 | 989.14 | 1527.9 | 37 | 3.553
313.15 K, x1 = 0.4999 | 985.23 | 1502.9 | 35.9 | 2.733
313.15 K, x1 = 0.5996 | 982.08 | 1480.5 | 34.9 | 2.322
313.15 K, x1 = 0.7002 | 981.06 | 1466.1 | 34.5 | 1.99
313.15 K, x1 = 0.7999 | 980.46 | 1454.9 | 35 | 1.775
313.15 K, x1 = 0.8997 | 980.14 | 1444.2 | 34.6 | 1.616
313.15 K, x1 = 1 | 980.76 | 1437.6 | 34.2 | 1.515
323.15 K, x1 = 0.1 | 990.31 | 1594.2 | – | 5.201
323.15 K, x1 = 0.2002 | 986.95 | 1549.2 | – | 4.011
323.15 K, x1 = 0.2999 | 983.29 | 1517.9 | – | 3.311
323.15 K, x1 = 0.4002 | 980.53 | 1493.2 | – | 2.734
323.15 K, x1 = 0.4999 | 976.53 | 1467 | – | 2.183
323.15 K, x1 = 0.5996 | 973.35 | 1443.8 | – | 1.884
323.15 K, x1 = 0.7002 | 972.34 | 1429.5 | – | 1.659
323.15 K, x1 = 0.7999 | 971.78 | 1418 | – | 1.503
323.15 K, x1 = 0.8997 | 971.5 | 1407.6 | – | 1.384
323.15 K, x1 = 1 | 972.16 | 1400.6 | – | 1.31

CCN1CCCC1=O [1-ethyl-2-pyrrolidinone] + OCCNCCO
Settings | mass density [kg/m3] | speed of sound [m/s] | surface tension liquid-gas [mN/m] | viscosity [mPa·s]
293.15 K, x1 = 0.1 | 1084.34 | 1700.4 | 44.5 | 462.69
293.15 K, x1 = 0.2005 | 1072.76 | 1666.7 | 42.8 | 227.23
293.15 K, x1 = 0.3001 | 1061.83 | 1638.2 | 41.2 | 109.6
293.15 K, x1 = 0.4002 | 1051.18 | 1611.7 | 40.1 | 51.6
293.15 K, x1 = 0.4999 | 1040.9 | 1589.2 | 39.2 | 26.02
293.15 K, x1 = 0.6 | 1031.22 | 1569.3 | 38.1 | 13.84
293.15 K, x1 = 0.7001 | 1022.09 | 1552.5 | 37.8 | 8.154
293.15 K, x1 = 0.8001 | 1013.33 | 1538.4 | 37.2 | 4.999
293.15 K, x1 = 0.8995 | 1005.23 | 1524.5 | 36.5 | 3.117
293.15 K, x1 = 1 | 997.91 | 1513.2 | 36.5 | 2.132
303.15 K, x1 = 0.1 | 1077.54 | 1672.2 | 43.6 | 211.41
303.15 K, x1 = 0.2005 | 1065.85 | 1637.9 | 41.3 | 110.73
303.15 K, x1 = 0.3001 | 1054.58 | 1607.8 | 40.1 | 55.57
303.15 K, x1 = 0.4002 | 1043.68 | 1581 | 39.1 | 29.59
303.15 K, x1 = 0.4999 | 1033.22 | 1557.4 | 38.4 | 16.21
303.15 K, x1 = 0.6 | 1023.25 | 1536.3 | 37.1 | 9.351
303.15 K, x1 = 0.7001 | 1013.95 | 1518.1 | 36.7 | 5.87
303.15 K, x1 = 0.8001 | 1005.2 | 1503.6 | 36.2 | 3.826
303.15 K, x1 = 0.8995 | 996.81 | 1487.8 | 35.3 | 2.496
303.15 K, x1 = 1 | 989.34 | 1475 | 35.2 | 1.777
313.15 K, x1 = 0.1 | 1070.86 | 1645.8 | 42 | 108.68
313.15 K, x1 = 0.2005 | 1058.79 | 1610.1 | 40.4 | 57.66
313.15 K, x1 = 0.3001 | 1047.53 | 1578.7 | 38.8 | 32.13
313.15 K, x1 = 0.4002 | 1036.08 | 1550.5 | 38.3 | 18.38
313.15 K, x1 = 0.4999 | 1025.43 | 1526.2 | 37 | 10.8
313.15 K, x1 = 0.6 | 1015.25 | 1503.7 | 36.3 | 6.732
313.15 K, x1 = 0.7001 | 1005.78 | 1484.4 | 35.9 | 4.419
313.15 K, x1 = 0.8001 | 996.9 | 1469.1 | 34.8 | 3.014
313.15 K, x1 = 0.8995 | 988.38 | 1451.6 | 34.4 | 2.058
313.15 K, x1 = 1 | 980.76 | 1437.6 | 34.2 | 1.515
323.15 K, x1 = 0.1 | 1064.04 | 1619.5 | – | 57.82
323.15 K, x1 = 0.2005 | 1051.64 | 1582.5 | – | 33.78
323.15 K, x1 = 0.3001 | 1039.8 | 1550 | – | 20.16
323.15 K, x1 = 0.4002 | 1028.42 | 1519.9 | – | 12.28
323.15 K, x1 = 0.4999 | 1017.57 | 1495.1 | – | 7.624
323.15 K, x1 = 0.6 | 1007.21 | 1471 | – | 5.011
323.15 K, x1 = 0.7001 | 997.61 | 1450.7 | – | 3.439
323.15 K, x1 = 0.8001 | 988.58 | 1434.7 | – | 2.429
323.15 K, x1 = 0.8995 | 979.92 | 1415.6 | – | 1.734
323.15 K, x1 = 1 | 972.16 | 1400.6 | – | 1.31

CCN1CCCC1=O [1-ethyl-2-pyrrolidinone] + OCCN(CCO)CCO
Settings | mass density [kg/m3] | speed of sound [m/s] | surface tension liquid-gas [mN/m] | viscosity [mPa·s]
293.15 K, x1 = 0.1001 | 1112.5 | 1611.4 | 44.7 | 570.35
293.15 K, x1 = 0.2 | 1101.3 | 1598.1 | 43.4 | 312.31
293.15 K, x1 = 0.3 | 1089.95 | 1585.4 | 42 | 164.25
293.15 K, x1 = 0.4004 | 1077.59 | 1574.5 | 40.9 | 81.22
293.15 K, x1 = 0.5001 | 1066.06 | 1565.5 | 40.1 | 41.49
293.15 K, x1 = 0.6002 | 1053.3 | 1555.6 | 39.2 | 21.52
293.15 K, x1 = 0.7002 | 1040.32 | 1545.9 | 38.3 | 11.54
293.15 K, x1 = 0.8 | 1026.31 | 1536.1 | 37.8 | 6.382
293.15 K, x1 = 0.8998 | 1012.14 | 1525.5 | 36.9 | 3.627
293.15 K, x1 = 1 | 997.91 | 1513.2 | 36.5 | 2.132
303.15 K, x1 = 0.1001 | 1106.6 | 1588.7 | 43.9 | 252.99
303.15 K, x1 = 0.2 | 1095.17 | 1575.4 | 42.3 | 151.13
303.15 K, x1 = 0.3 | 1083.52 | 1562.2 | 41.3 | 85.6
303.15 K, x1 = 0.4004 | 1070.78 | 1548.9 | 40.2 | 46.14
303.15 K, x1 = 0.5001 | 1058.92 | 1538.5 | 39.2 | 25.54
303.15 K, x1 = 0.6002 | 1045.86 | 1526.5 | 38.6 | 14.29
303.15 K, x1 = 0.7002 | 1032.59 | 1514.2 | 37.5 | 8.268
303.15 K, x1 = 0.8 | 1018.3 | 1502.2 | 36.7 | 4.866
303.15 K, x1 = 0.8998 | 1003.86 | 1490.5 | 36 | 2.902
303.15 K, x1 = 1 | 989.34 | 1475 | 35.2 | 1.777
313.15 K, x1 = 0.1001 | 1100.7 | 1569.8 | 43 | 132.88
313.15 K, x1 = 0.2 | 1088.99 | 1555.1 | 41.6 | 82.06
313.15 K, x1 = 0.3 | 1076.98 | 1540.4 | 40.6 | 47.47
313.15 K, x1 = 0.4004 | 1063.92 | 1524.8 | 39.4 | 28.4
313.15 K, x1 = 0.5001 | 1051.74 | 1512.2 | 38.3 | 16.84
313.15 K, x1 = 0.6002 | 1038.43 | 1497.6 | 37.6 | 10.07
313.15 K, x1 = 0.7002 | 1024.86 | 1483.1 | 36.4 | 6.178
313.15 K, x1 = 0.8 | 1010.29 | 1468.6 | 35.8 | 3.794
313.15 K, x1 = 0.8998 | 995.57 | 1456.6 | 35 | 2.379
313.15 K, x1 = 1 | 980.76 | 1437.6 | 34.2 | 1.515
323.15 K, x1 = 0.1001 | 1094.74 | 1551.9 | – | 75.13
323.15 K, x1 = 0.2 | 1082.69 | 1534.9 | – | 46.57
323.15 K, x1 = 0.3 | 1070.36 | 1517.4 | – | 29.62
323.15 K, x1 = 0.4004 | 1057 | 1500.3 | – | 18.7
323.15 K, x1 = 0.5001 | 1044.54 | 1485.3 | – | 11.73
323.15 K, x1 = 0.6002 | 1030.97 | 1469.1 | – | 7.428
323.15 K, x1 = 0.7002 | 1017.11 | 1452.3 | – | 4.758
323.15 K, x1 = 0.8 | 1002.27 | 1435.5 | – | 3.06
323.15 K, x1 = 0.8998 | 987.27 | 1422.3 | – | 1.994
323.15 K, x1 = 1 | 972.16 | 1400.6 | – | 1.31
